Measurements from patent US7709465B2, “Phosphorous containing compounds including triphenylmethylphosphonate esters for the treatment of melanoma and other cancers” (The Board of Trustees of the University of Illinois, priority 2006, dated 2010).
pIC50: −log10 of the molar value.

Assays:
Type in all cases: cell-based
NCI-H226 = assay: High-throughput cell death assay I, NCI-H226; details: NCI-H226, lung (human); read-out: diethyl TPMP IC50
Text: (§1) Compound CX5 was further tested using the same high-throughput cell death assay I for activity in inducing death in multiple cell lines representing a variety of cancer types.

U-937 = assay: High-throughput cell death assay I, U-937; details: U-937, lymphoma (human); read-out: diethyl TPMP IC50
Text: (§2) According to the American Type Culture Collection (ATCC), U-937 is a human cell line of histiocytic lymphoma tissue with monocyte morphology. See Sundstrom C, Nilsson K, Int. J. Cancer 17: 565-577, 1976. Also according to ATCC, HL-60 is a human cell line of a tissue type described as peripheral blood, promyeloblast, and acute promyelocytic leukemia, with myeloblastic morphology. See Gallagher R, et al., Blood 54: 713-733, 1979.
as §1

CRL-1782 = assay: High-throughput cell death assay I, CRL-1782; details: CRL-1782, melanoma (human); read-out: diethyl TPMP IC50
Text: as §1

MDA-MB-231 = assay: High-throughput cell death assay I, MDA-MB-231; details: Homo sapiens, read-out: diethyl TPMP IC50
Text: as §1

B16-F10 = assay: High-throughput cell death assay I, B16-F10; details: B16-F10, melanoma (mouse); read-out: diethyl TPMP IC50
Text: as §1

Hs578t = assay: High-throughput cell death assay I, Hs578t; details: Hs-578T, breast (human), read-out: diethyl TPMP IC50
Text: as §1

ACHN = assay: High-throughput cell death assay I, ACHN; details: renal (human), read-out: diethyl TPMP IC50
Text: as §1

SK-N-SH = assay: High-throughput cell death assay I, SK-N-SH; details: neuroblastoma (human), read-out: diethyl TPMP IC50
Text: as §1

K562 = assay: High-throughput cell death assay I, K562; details: K562, leukemia (CML, human); read-out: diethyl TPMP IC50
Text: as §1

HL-60 = assay: High-throughput cell death assay I, HL-60; details: HL-60, leukemia (human); read-out: diethyl TPMP IC50
Text: as §2, §1

SK-MEL-5 = assay: High-throughput cell death assay I, SK-MEL-5; details: SK-MEL-5, melanoma (human); read-out: diethyl TPMP IC50
Text: as §1

SMILES: CCOP(=O)(OCC)C(c1ccccc1)(c1ccccc1)c1ccccc1 [CX5]
- pIC50 (NCI-H226): 5.18
- pIC50 (U-937): 4.94
- pIC50 (CRL-1782): 5.85
- pIC50 (MDA-MB-231): 5.96
- pIC50 (B16-F10): 6.09
- pIC50 (Hs578t): 4.88
- pIC50 (ACHN): 5.01
- pIC50 (SK-N-SH): 5.74
- pIC50 (K562): 5.49
- pIC50 (HL-60): 4.88
- pIC50 (SK-MEL-5): 5.47
